# Measurements from patent US8557816B2, “Aurora kinase modulators and method of use” (Amgen Inc., priority 2007, dated 2013).
# Tests used:
# AuroraA-TPX2 = molecular target: T1, AuroraA-TPX2 (Homo sapiens, UniProt O14965); test: AuroraA-TPX2 Homogeneous Time Resolved Fluorescent (HTRF) kinase assay; format: biochemical; conditions: average; read-out: AurA_IC50_IP (uM Avg)
# T1 construct: 20 μL of AuroraA-TPX2 KD GST for a final volume of about 41 μL; GST
# T1 sequence (O14965 133-383 limits assumed): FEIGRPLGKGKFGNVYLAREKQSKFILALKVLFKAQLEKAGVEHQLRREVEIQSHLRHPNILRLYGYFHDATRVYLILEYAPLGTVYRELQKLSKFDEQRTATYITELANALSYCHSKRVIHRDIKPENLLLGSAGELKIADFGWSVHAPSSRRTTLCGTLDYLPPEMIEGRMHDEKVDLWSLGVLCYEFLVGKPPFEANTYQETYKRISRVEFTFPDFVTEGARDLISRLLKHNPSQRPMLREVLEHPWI
# T1 sequence (Q9ULW0 1-43 partner limits assumed): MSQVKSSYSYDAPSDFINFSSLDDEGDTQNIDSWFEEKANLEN
# Summary of the method: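 HTRF read-out (Eu 615 nm to APC 655 nm) of phosphorylated biotin-PLK, detected with 0.02 nM europium anti-phosphoPLK antibody and 0.0005 mg/mL SA-APC after overnight equilibration.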
# AuroraB = molecular target: T2, AuroraB (Homo sapiens, UniProt Q96GD4); test: AuroraB Homogeneous Time Resolved Fluorescent (HTRF) kinase assay; format: biochemical; conditions: average; read-out: AurB_IC50_IP (uM Avg)
# T2 construct: 20 μL of AuroraB FL H is for a final volume of 41 μL; His
# Summary of the method: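 Read-out is time-resolved FRET between europium anti-phospho-H3 antibody and streptavidin-APC, added in EDTA buffer to stop the reaction and equilibrated about 60 min (ex 320, em 615 and 655 nm). Preceding reaction: ~90 min, full-length enzyme, ATP, 0.1 μM biotin-Histone H3 substrate, Mg/Mn HEPES buffer pH 7.5.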
# T2 sequence (Q96GD4 whole entry): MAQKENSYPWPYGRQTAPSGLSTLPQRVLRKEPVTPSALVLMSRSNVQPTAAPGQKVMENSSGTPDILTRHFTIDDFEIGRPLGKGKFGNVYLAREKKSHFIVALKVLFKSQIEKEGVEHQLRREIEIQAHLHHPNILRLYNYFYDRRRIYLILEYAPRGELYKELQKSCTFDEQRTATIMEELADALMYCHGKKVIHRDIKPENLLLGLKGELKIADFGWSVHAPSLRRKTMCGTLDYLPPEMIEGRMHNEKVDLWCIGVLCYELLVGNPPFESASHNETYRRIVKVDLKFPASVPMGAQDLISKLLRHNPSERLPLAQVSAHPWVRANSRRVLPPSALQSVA
SMILES,IC50 (AuroraA-TPX2),IC50 (AuroraB)
Clc1ccc(-c2nnc(Nc3ccc(Sc4ccnc5ccncc45)cc3)c3ccccc23)cc1 [compound 426],0.1 µM,0.008 µM
c1ccc2c(-c3ccc4c(c3)OCO4)nnc(Nc3ccc(Sc4ccnc5ccncc45)cc3)c2c1 [compound 427],0.055 µM,0.007 µM
Cc1csc(-c2nnc(Nc3ccc(Sc4ccnc5ccncc45)cc3)c3ccccc23)c1 [compound 428],0.032 µM,0.013 µM
Cc1csc(-c2nnc(Nc3ccc(Oc4ccnc5ccncc45)cc3)c3ccccc23)c1 [compound 429],0.046 µM,0.012 µM
Clc1ccc(-c2nnc(Nc3ccc(Sc4ccnc5ccncc45)cc3)c3ccccc23)nc1 [compound 430],0.084 µM,0.007 µM
COCCOc1ccc2c(Sc3ccc(Nc4nnc(-c5ccc(Cl)cc5)c5ccccc45)cc3)ccnc2c1 [compound 431],0.012 µM,0.018 µM
Cc1ccc(-c2nnc(Nc3ccc(Oc4ccnc5ccncc45)cc3)c3ccccc23)nc1 [compound 432],0.122 µM,0.012 µM
Cc1ccc(-c2nnc(Nc3ccc(Sc4ccnc5ccncc45)cc3)c3ccccc23)nc1 [compound 433],0.056 µM,0.004 µM
COCCOc1ccc2nccc(Sc3ccc(Nc4nnc(-c5ccc(Cl)cc5)c5ccccc45)cc3)c2c1 [compound 434],0.109 µM,0.109 µM
COc1cc(OC)c2c(Oc3ccc(Nc4nnc(-c5ccc(Cl)cc5)c5ccccc45)cc3)ccnc2c1 [compound 435],0.038 µM,0.121 µM
COc1cc(OC)c2c(Sc3ccc(Nc4nnc(-c5ccc(Cl)cc5)c5ccccc45)cc3)ccnc2c1 [compound 436],0.401 µM,0.675 µM
COc1cc(F)cc2nccc(Oc3ccc(Nc4nnc(-c5ccc(Cl)cc5)c5ccccc45)cc3)c12 [compound 437],0.042 µM,0.035 µM
COc1cc(F)cc2nccc(Sc3ccc(Nc4nnc(-c5ccc(Cl)cc5)c5ccccc45)cc3)c12 [compound 438],0.112 µM,0.051 µM
COc1cc(OC)c2c(Sc3ccc(Nc4nnc(-c5cc(C)cs5)c5ccccc45)cc3)ccnc2c1 [compound 439],1.66 µM,3.2 µM
COc1cc(F)cc2nccc(Sc3ccc(Nc4nnc(-c5cc(C)cs5)c5ccccc45)cc3)c12 [compound 440],0.585 µM,0.596 µM
COc1cc(OC)c2c(Oc3ccc(Nc4nnc(-c5cc(C)cs5)c5ccccc45)cc3)ccnc2c1 [compound 441],0.456 µM,0.135 µM
COc1cc(F)cc2nccc(Oc3ccc(Nc4nnc(-c5cc(C)cs5)c5ccccc45)cc3)c12 [compound 442],0.157 µM,0.017 µM
c1cnc2c(Sc3ccc(Nc4nnc(-c5ccc6c(c5)OCO6)c5ccccc45)cc3)ccnc2c1 [compound 443],0.012 µM,0.002 µM
FC1(F)Oc2ccc(-c3nnc(Nc4ccc(Sc5ccnc6cccnc56)cc4)c4ccccc34)cc2O1 [compound 444],0.128 µM,0.022 µM
c1cnc2c(Sc3ccc(Nc4nnc(-c5ccc6c(c5)CCO6)c5ccccc45)cc3)ccnc2c1 [compound 445],0.03 µM,0.013 µM
c1cnc2c(Sc3ccc(Nc4nnc(-c5ccc6occc6c5)c5ccccc45)cc3)ccnc2c1 [compound 446],0.035 µM,0.011 µM

# Further lines, results first:
IC50 (AuroraA-TPX2),IC50 (AuroraB),SMILES
0.027 µM,0.013 µM,Cc1csc(-c2nnc(Nc3ccc(Oc4ccnc5cccnc45)cc3)c3ccccc23)c1 [compound 447]
0.039 µM,0.011 µM,Clc1ccc(-c2nnc(Nc3ccc(Oc4ccnc5cccnc45)cc3)c3ccccc23)cc1 [compound 448]
0.026 µM,0.006 µM,COc1cnc2c(Oc3ccc(Nc4nnc(-c5ccc(C)c(O)c5)c5ccccc45)cc3)ccnc2c1 [compound 449]
0.101 µM,0.054 µM,COCCOc1cc(-c2nnc(Nc3ccc(Sc4ccnc5cc(OC)cnc45)cc3)c3ccccc23)ccc1Cl [compound 450]
0.078 µM,0.033 µM,COc1cnc2c(Sc3ccc(Nc4nnc(-c5ccc(C)c(O)c5)c5ccccc45)cc3)ccnc2c1 [compound 451]
0.058 µM,0.003 µM,Oc1cc(-c2nnc(Nc3ccc(Sc4ccnc5cccnc45)cc3)c3ccccc23)ccc1Cl [compound 452]
0.028 µM,0.032 µM,COc1cnc2c(Sc3ccc(Nc4nnc(-c5ccc6cn[nH]c6c5)c5ccccc45)cc3)ccnc2c1 [compound 453]
0.05 µM,0.01 µM,COc1cnc2c(Oc3c(F)cc(Nc4nnc(-c5ccc(Cl)cc5)c5ccccc45)cc3F)ccnc2c1 [compound 454]
> 125 µM,0.013 µM,Fc1ccc2c(Oc3ccc(Nc4nnc(-c5ccc(Cl)cc5)c5ccccc45)cc3)ccnc2c1 [compound 455]
1 µM,0.058 µM,COc1cnnc(Nc2ccc(Oc3ccnc4cc(OC)cnc34)cc2)c1 [compound 456]
0.062 µM,0.015 µM,N#Cc1cc2nccc(Sc3ccc(Nc4nnc(-c5ccc6c(c5)OCO6)c5ccccc45)cc3)c2s1 [compound 457]
> 25 µM,0.097 µM,N#Cc1cc2nccc(Sc3ccc(Nc4nnc(-c5ccccc5)c5ccccc45)cc3)c2s1 [compound 458]
0.21 µM,0.15 µM,Cc1csc(-c2nnc(Nc3ccc(Sc4ccnc5cc(C#N)sc45)cc3)c3ccccc23)c1 [compound 459]
0.045 µM,0.015 µM,N#Cc1cc2nccc(Sc3ccc(Nc4nnc(-c5ccc(Cl)cn5)c5ccccc45)cc3)c2s1 [compound 460]
0.044 µM,0.009 µM,Cc1ccc(-c2nnc(Nc3ccc(Sc4ccnc5cc(C#N)sc45)cc3)c3ccccc23)cn1 [compound 461]
0.557 µM,0.01 µM,"c1ccc(-c2nnc(Nc3ccc(Sc4ccnc5cc[nH]c45)cc3)c3ccccc23)cc1 [compound 462, 4-phenyl-N-(4-(1H-pyrrolo[3,2-b]pyridin-7-ylthio)phenyl)-1-phthalazinamine]"
0.146 µM,0.008 µM,"Clc1ccc(-c2nnc(Nc3ccc(Sc4ccnc5cc[nH]c45)cc3)c3ccccc23)cc1 [compound 463, 4-(4-chlorophenyl)-N-(4-(1H-pyrrolo[3,2-b]pyridin-7-ylthio)phenyl)-1-phthalazinamine]"
0.088 µM,0.006 µM,"Cc1csc(-c2nnc(Nc3ccc(Sc4ccnc5cc[nH]c45)cc3)c3ccccc23)c1 [compound 464, 4-(4-methyl-2-thienyl)-N-(4-(1H-pyrrolo[3,2-b]pyridin-7-ylthio)phenyl)-1-phthalazinamine]"
0.093 µM,0.012 µM,Clc1ccc(-c2nnc(Nc3ccc(Sc4ccnc5ccoc45)cc3)c3ccccc23)cc1 [compound 465]
0.431 µM,0.013 µM,c1ccc(-c2nnc(Nc3ccc(Sc4ccnc5ccoc45)cc3)c3ccccc23)cc1 [compound 466]
0.095 µM,0.01 µM,c1ccc2c(-c3ccc4c(c3)OCO4)nnc(Nc3ccc(Sc4ccnc5ccoc45)cc3)c2c1 [compound 467]
0.129 µM,0.029 µM,Cc1csc(-c2nnc(Nc3ccc(Sc4ccnc5ccoc45)cc3)c3ccccc23)c1 [compound 468]
0.11 µM,0.053 µM,"COCCn1ccc2nccc(Sc3ccc(Nc4nnc(-c5ccc(Cl)cc5)c5ccccc45)cc3)c21 [compound 469, 4-(4-chlorophenyl)-N-(4-((1-(2-(methyloxy)ethyl)-1H-pyrrolo[3,2-b]pyridin-7-yl)thio)phenyl)-1-phthalazinamine]"
0.041 µM,0.051 µM,"COCCn1ccc2nccc(Sc3ccc(Nc4nnc(-c5cc(C)cs5)c5ccccc45)cc3)c21 [compound 470, N-(4-((1-(2-(methyloxy)ethyl)-1H-pyrrolo[3,2-b]pyridin-7-yl)thio)phenyl)-4-(4-methyl-2-thienyl)-1-phthalazinamine]"
0.09 µM,0.049 µM,"CC(C)n1ccc2nccc(Sc3ccc(Nc4nnc(-c5ccc(Cl)cc5)c5ccccc45)cc3)c21 [compound 471, 4-(4-chlorophenyl)-N-(4-((1-(1-methylethyl)-1H-pyrrolo[3,2-b]pyridin-7-yl)thio)phenyl)-1-phthalazinamine]"
0.064 µM,0.099 µM,"Cc1csc(-c2nnc(Nc3ccc(Sc4ccnc5ccn(C(C)C)c45)cc3)c3ccccc23)c1 [compound 472, N-(4-((1-(1-methylethyl)-1H-pyrrolo[3,2-b]pyridin-7-yl)thio)phenyl)-4-(4-methyl-2-thienyl)-1-phthalazinamine]"
0.073 µM,0.011 µM,COCCOc1ccc(-c2nnc(Nc3ccc(Sc4ccnc5cc(OC)cnc45)cc3)c3ccccc23)cc1OCCOC [compound 473]
0.051 µM,0.016 µM,COCCOc1ccc(-c2nnc(Nc3ccc(Sc4ccnc5cc(OC)cnc45)cc3)c3ccccc23)cc1 [compound 474]
0.035 µM,0.026 µM,COCCOCCOc1ccc2nccc(Sc3ccc(Nc4nnc(-c5ccc(Cl)cc5)c5ccccc45)cc3)c2n1 [compound 475]
